{"source": "patent US10408837B2", "about": "(priority 2013, dated 2019)", "molecular_target": "BoNT/E (Clostridium botulinum, UniProt Q00496)", "note": "Several values for one entry are separate records, joined by “and”; a condition that tells them apart may be missing. Equal entries are not always repeated.", "data": [{"sequence": "IIIGNLGNEIDTQNRQIDRIMAKAKSKKR [Pep-52]", "values": [{"measurement": "Relative product", "result": "581 and 511"}]}]}
